Measurements published in patent publication US11236087B2, “Highly active pyrazolo-piperidine substituted indole-2-carboxamides active against the hepatitis B virus (HBV)” (AiCuris GmbH & Co. KG, priority 2017, dated 2022).

Columns and labels:
[1] = tested on: HBV; assay: Determination of HBV DNA from the supernatants of HepAD38 cells (anti-HBV activity); assay type: cell-based, hepatitis B virus; settings: Hepatitis B virus, 144 h; HBV DNA in HepAD38 supernatant, day 6, qPCR; read-out: Cell Activity (EC50)
Summary of the method: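 Supernatant viral DNA was measured by LightCycler qPCR, calibrated with pCH-9/3091 plasmid, 6 days after tetracycline-free HepAD38 cultures received half-log serial compound dilutions; untreated and tetracycline-treated cells served as controls; EC50 was fitted by non-linear regression.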

[2] = target: T1, HBV core protein (UniProt P03146); assay: Biochemical capsid assembly assay (fluorescence quenching); set-up: species or system hepatitis B virus; settings: read-out: Assembly Activity (IC50); BODIPY-FL labelled core protein, 300 μM NaCl, read 6 min after start
T1 construct: fused on or other part: BODIPY-FL maleimide label on the C-terminal Cys150
T1 sequence (P03146 whole entry, looked up, the tested form may be a part): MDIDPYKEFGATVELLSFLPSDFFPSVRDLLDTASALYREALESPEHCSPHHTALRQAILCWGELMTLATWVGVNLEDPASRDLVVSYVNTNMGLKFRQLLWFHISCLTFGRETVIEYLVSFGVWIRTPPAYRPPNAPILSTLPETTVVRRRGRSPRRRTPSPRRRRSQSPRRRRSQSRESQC
Method: Biochemical Capsid Assembly Assay
The screening for assembly effector activity was done based on a fluorescence quenching assay published by Zlotnick et al. (2007). The C-terminal truncated core protein containing 149 amino acids of the N-terminal assembly domain fused to a unique cysteine residue at position 150 and was expressed in E. coli using the pET expression system (Merck Chemicals, Darmstadt). Purification of core dimer protein was performed using a sequence of size exclusion chromatography steps. In brief, the cell pellet from 1 L BL21 (DE3) Rosetta2 culture expressing the coding sequence of core protein cloned NdeI/XhoI into expression plasmid pET21b was treated for 1 h on ice with a native lysis buffer (Qproteome Bacterial Protein Prep Kit; Qiagen, Hilden). After a centrifugation step the supernatant was precipitated during 2 h stirring on ice with 0.23 g/ml of solid ammonium sulfate. Following further centrifugation the resulting pellet was resolved in buffer A (100 mM Tris, pH 7.5; 100 mM NaCl; 2 mM DTT) and was subsequently loaded onto a buffer A equilibrated CaptoCore 700 column (GE HealthCare, Frankfurt). The column flow through containing the assembled HBV capsid was dialyzed against buffer N (50 mM NaHCO3 pH 9.6; 5 mM DTT) before urea was added to a final concentration of 3M to dissociate the capsid into core dimers for 1.5 h on ice. The protein solution was then loaded onto a 1 L Sephacryl S300 column. After elution with buffer N core dimer containing fractions were identified by SDS-PAGE and subsequently pooled and dialyzed against 50 mM HEPES pH 7.5; […]. To improve the assembly capacity of the purified core dimers a second round of assembly and disassembly starting with the addition of 5 M NaCl and including the size exclusion chromatography steps described above was performed. From the last chromatography step core dimer containing fractions were pooled and stored in aliquots at concentrations between 1.5 to 2.0 mg/ml at −80° C.
Immediately before labelling the core protein was reduced by adding freshly prepared DTT in a final concentration of 20 mM. After 40 min incubation on ice storage buffer and DTT was removed using a Sephadex G-25 column (GE HealthCare, Frankfurt) and 50 mM HEPES, pH 7.5. For labelling 1.6 mg/ml core protein was incubated at 4° C. and darkness overnight with BODIPY-FL maleimide (Invitrogen, Karlsruhe) in a final concentration of 1 mM. After labelling the free dye was removed by an additional desalting step using a Sephadex G-25 column. Labelled core dimers were stored in aliquots at 4° C. In the dimeric state the fluorescence signal of the labelled core protein is high and is quenched during the assembly of the core dimers to high molecular capsid structures. The screening assay was performed in black 384 well microtiter plates in a total assay volume of 10 μl using 50 mM HEPES pH 7.5 and 1.0 to 2.0 μM labelled core protein. Each screening compound was added in 8 different concentrations using a 0.5 log-unit serial dilution starting at a final concentration of 100 μM, 31.6 μM or 10 μM, In any case the DMSO concentration over the entire microtiter plate was 0.5%. The assembly reaction was started by the injection of NaCl to a final concentration of […] which induces the assembly process to approximately 25% of the maximal quenched signal. 6 min after starting the reaction the fluorescence signal was measured using a Clariostar plate reader (BMG Labtech, Ortenberg) with an excitation of 477 nm and an emission of 525 nm. As 100% and 0% assembly control HEPES buffer containing 2.5 M and 0 M NaCl was used. Experiments were performed thrice in triplicates. EC50 values were calculated by non-linear regression analysis using the Graph Pad Prism 6 software (GraphPad Software, La Jolla, USA).

[3] = Cell viability assay (AlamarBlue) in HepAD38 cells; settings: human

Compound | EC50 [1] [µM] | IC50 [2] [µM] | CC50 at 6 days [3] [µM]
CCc1cc(F)cc2[nH]c(C(=O)N3CCc4n[nH]c(-c5cscn5)c4C3)cc12 [Example 12, 4-ethyl-6-fluoro-2-[3-(1,3-thiazol-4-yl)-2H,4H,5H,6H,7H-pyrazolo[4,3-c]pyridine-5-carbonyl]-1H-indole] | < 1 | < 5 | > 10
O=C(c1cc2ccc(Br)cc2[nH]1)N1CCc2n[nH]c(-c3cscn3)c2C1 [Example 15, 6-bromo-2-[3-(1,3-thiazol-4-yl)-2H,4H,5H,6H,7H-pyrazolo[4,3-c]pyridine-5-carbonyl]-1H-indole] | < 1 | 5 to 10 | > 10
O=C(c1cc2ccc(Cl)cc2[nH]1)N1CCc2n[nH]c(-c3cscn3)c2C1 [Example 16, 6-chloro-2-[3-(1,3-thiazol-4-yl)-2H,4H,5H,6H,7H-pyrazolo[4,3-c]pyridine-5-carbonyl]-1H-indole] | < 1 | < 5 | > 10
O=C(c1cc2c(F)ccc(F)c2[nH]1)N1CCc2n[nH]c(-c3cscn3)c2C1 [Example 17, 4,7-difluoro-2-[3-(1,3-thiazol-4-yl)-2H,4H,5H,6H,7H-pyrazolo[4,3-c]pyridine-5-carbonyl]-1H-indole] | < 1 | < 5 | > 10
CCc1cccc2[nH]c(C(=O)N3CCc4n[nH]c(-c5cscn5)c4C3)cc12 [Example 18, 4-ethyl-2-[3-(1,3-thiazol-4-yl)-2H,4H,5H,6H,7H-pyrazolo[4,3-c]pyridine-5-carbonyl]-1H-indole] | < 1 | < 5 | 7.3
O=C(c1cc2c(Cl)cccc2[nH]1)N1CCc2n[nH]c(-c3cscn3)c2C1 [Example 19, 4-chloro-2-[3-(1,3-thiazol-4-yl)-2H,4H,5H,6H,7H-pyrazolo[4,3-c]pyridine-5-carbonyl]-1H-indole] | < 1 | < 5 | > 10
O=C(c1cc2c(F)cc(F)cc2[nH]1)N1CCc2n[nH]c(-c3cscn3)c2C1 [Example 20, 4,6-difluoro-2-[3-(1,3-thiazol-4-yl)-2H,4H,5H,6H,7H-pyrazolo[4,3-c]pyridine-5-carbonyl]-1H-indole] | < 1 | < 5 | > 10
O=C(c1cc2c(C(F)(F)F)cccc2[nH]1)N1CCc2n[nH]c(-c3cscn3)c2C1 [Example 21, 2-[3-(1,3-thiazol-4-yl)-2H,4H,5H,6H,7H-pyrazolo[4,3-c]pyridine-5-carbonyl]-4-(trifluoromethyl)-1H-indole] | < 1 | < 100 | > 10
O=C(c1cc2c(F)c(F)ccc2[nH]1)N1CCc2n[nH]c(-c3cscn3)c2C1 [Example 22, 4,5-difluoro-2-[3-(1,3-thiazol-4-yl)-2H,4H,5H,6H,7H-pyrazolo[4,3-c]pyridine-5-carbonyl]-1H-indole] | < 1 | < 5 | > 10
Cc1cccc2[nH]c(C(=O)N3CCc4n[nH]c(-c5cscn5)c4C3)cc12 [Example 23, 4-methyl-2-[3-(1,3-thiazol-4-yl)-2H,4H,5H,6H,7H-pyrazolo[4,3-c]pyridine-5-carbonyl]-1H-indole] | < 1 | < 5 | > 10
Cc1cc(F)cc2[nH]c(C(=O)N3CCc4n[nH]c(-c5cscn5)c4C3)cc12 [Example 26, 6-fluoro-4-methyl-2-[3-(1,3-thiazol-4-yl)-2H,4H,5H,6H,7H-pyrazolo[4,3-c]pyridine-5-carbonyl]-1H-indole] | < 1 | < 5 | > 10
CN(CCO)C(=O)c1n[nH]c2c1CN(C(=O)c1cc3c(C(C)(F)F)cc(F)cc3[nH]1)CC2 [Example 27, 5-[4-(1,1-difluoroethyl)-6-fluoro-1H-indole-2-carbonyl]-N-(2-hydroxyethyl)-N-methyl-1H,4H,5H,6H,7H-pyrazolo[4,3-c]pyridine-3-carboxamide] | < 1 | < 5 | > 10
CN(CCO)C(=O)c1n[nH]c2c1CN(C(=O)c1cc3c(F)cc(F)cc3[nH]1)CC2 [Example 28, 5-(4,6-difluoro-1H-indole-2-carbonyl)-N-(2-hydroxyethyl)-N-methyl-1H,4H,5H,6H,7H-pyrazolo[4,3-c]pyridine-3-carboxamide] | < 1 | < 5 | > 10
CN(CCO)C(=O)c1n[nH]c2c1CN(C(=O)c1cc3ccc(Br)cc3[nH]1)CC2 [Example 29, 5-(6-bromo-1H-indole-2-carbonyl)-N-(2-hydroxyethyl)-N-methyl-1H,4H,5H,6H,7H-pyrazolo[4,3-c]pyridine-3-carboxamide] | < 1 | < 5 | > 10
CN(CCO)C(=O)c1n[nH]c2c1CN(C(=O)c1cc3c(Br)cccc3[nH]1)CC2 [Example 30, 5-(4-bromo-1H-indole-2-carbonyl)-N-(2-hydroxyethyl)-N-methyl-1H,4H,5H,6H,7H-pyrazolo[4,3-c]pyridine-3-carboxamide] | < 1 | < 5 | > 10
CNC(C)(C)COC(=O)c1n[nH]c2c1CN(C(=O)c1cc3ccccc3[nH]1)CC2 [Example 31, 2-methyl-2-(methylamino)propyl 5-(1H-indole-2-carbonyl)-1H,4H,5H,6H,7H-pyrazolo[4,3-c]pyridine-3-carboxylate] | 1 to 25 | 5 to 10 | > 100
CNC1(COC(=O)c2n[nH]c3c2CN(C(=O)c2cc4ccccc4[nH]2)CC3)CC1 [Example 32, [1-(methylamino)cyclopropyl]methyl 5-(1H-indole-2-carbonyl)-1H,4H,5H,6H,7H-pyrazolo[4,3-c]pyridine-3-carboxylate] | < 1 | < 5 | > 100
CN(C(=O)c1n[nH]c2c1CN(C(=O)c1cc3ccccc3[nH]1)CC2)C1(CO)CC1 [Example 33, N-[1-(hydroxymethyl)cyclopropyl]-5-(1H-indole-2-carbonyl)-N-methyl-1H,4H,5H,6H,7H-pyrazolo[4,3-c]pyridine-3-carboxamide] | < 1 | < 5 | > 10
CC1(O)CN(C(=O)c2n[nH]c3c2CN(C(=O)c2cc4ccccc4[nH]2)CC3)C1 [Example 34, 1-[5-(1H-indole-2-carbonyl)-1H,4H,5H,6H,7H-pyrazolo[4,3-c]pyridine-3-carbonyl]-3-methylazetidin-3-ol] | < 1 | < 100 | > 15
CC1c2c(-c3cscn3)n[nH]c2CCN1C(=O)c1cc2ccccc2[nH]1 (stereo not drawn) [Example 36, 2-[4-methyl-3-(1,3-thiazol-4-yl)-1H,4H,5H,6H,7H-pyrazolo[4,3-c]pyridine-5-carbonyl]-1H-indole] | < 1 | 5 to 10 | 88
CC1Cc2[nH]nc(-c3cscn3)c2CN1C(=O)c1cc2c(Cl)cc(F)cc2[nH]1 (stereo not drawn) [Example 37, 4-chloro-6-fluoro-2-[6-methyl-3-(1,3-thiazol-4-yl)-1H,4H,5H,6H,7H-pyrazolo[4,3-c]pyridine-5-carbonyl]-1H-indole] | < 1 | 5 to 10 | > 32
